Assay results as given in patent publication US9918974B2, “Pyridone derivatives as rearranged during transfection (RET) kinase inhibitors” (GlaxoSmithKline Intellectual Property Development Limited, priority 2014, dated 2018).

Biological target: Human RET kinase (Homo sapiens (Human), UniProt P07949, C634W)
Test: RET kinase cell-based mechanistic assay (constitutive RET kinase phosphorylation in TT cells)
Settings: 2 h treatment, phospho-RET ELISA
Method: RET Kinase Cell-Based Mechanistic Assay
The potency of the compounds of the invention were tested for its ability to inhibit constitutive RET kinase phosphorylation in cell-based assay. TT cells (ATCC CRL-1803), a medullary thyroid cancer cell line with constitutively activated RET kinase, were maintained in 150 cm^2 dishes in F12 Kaighn's medium, 10% fetal bovine serum, 1× Glutamax, 1× non-essential amino acids, 1× Pen/Strep antibiotics at 37° C. in 5% carbon dioxide. 1.0E5 TT cells/well were plated in a 96-well cell culture plate and allowed to adhere overnight. […] Plates were washed 4× with 200 μL of 1×PBS; 0.05% Tween-20, 100 μL of TMB (3,3′,5,5″-tetramethylbenzidine) substrate (Cell Signaling #7004) was added, incubated for 10 minutes at 37° C., 100 μL of Stop solution (Cell Signaling #7002) was added and absorbance read on a spectrophotometer at 450 nm. […]

Sequence of Human RET kinase (P07949 29-1114 C634W): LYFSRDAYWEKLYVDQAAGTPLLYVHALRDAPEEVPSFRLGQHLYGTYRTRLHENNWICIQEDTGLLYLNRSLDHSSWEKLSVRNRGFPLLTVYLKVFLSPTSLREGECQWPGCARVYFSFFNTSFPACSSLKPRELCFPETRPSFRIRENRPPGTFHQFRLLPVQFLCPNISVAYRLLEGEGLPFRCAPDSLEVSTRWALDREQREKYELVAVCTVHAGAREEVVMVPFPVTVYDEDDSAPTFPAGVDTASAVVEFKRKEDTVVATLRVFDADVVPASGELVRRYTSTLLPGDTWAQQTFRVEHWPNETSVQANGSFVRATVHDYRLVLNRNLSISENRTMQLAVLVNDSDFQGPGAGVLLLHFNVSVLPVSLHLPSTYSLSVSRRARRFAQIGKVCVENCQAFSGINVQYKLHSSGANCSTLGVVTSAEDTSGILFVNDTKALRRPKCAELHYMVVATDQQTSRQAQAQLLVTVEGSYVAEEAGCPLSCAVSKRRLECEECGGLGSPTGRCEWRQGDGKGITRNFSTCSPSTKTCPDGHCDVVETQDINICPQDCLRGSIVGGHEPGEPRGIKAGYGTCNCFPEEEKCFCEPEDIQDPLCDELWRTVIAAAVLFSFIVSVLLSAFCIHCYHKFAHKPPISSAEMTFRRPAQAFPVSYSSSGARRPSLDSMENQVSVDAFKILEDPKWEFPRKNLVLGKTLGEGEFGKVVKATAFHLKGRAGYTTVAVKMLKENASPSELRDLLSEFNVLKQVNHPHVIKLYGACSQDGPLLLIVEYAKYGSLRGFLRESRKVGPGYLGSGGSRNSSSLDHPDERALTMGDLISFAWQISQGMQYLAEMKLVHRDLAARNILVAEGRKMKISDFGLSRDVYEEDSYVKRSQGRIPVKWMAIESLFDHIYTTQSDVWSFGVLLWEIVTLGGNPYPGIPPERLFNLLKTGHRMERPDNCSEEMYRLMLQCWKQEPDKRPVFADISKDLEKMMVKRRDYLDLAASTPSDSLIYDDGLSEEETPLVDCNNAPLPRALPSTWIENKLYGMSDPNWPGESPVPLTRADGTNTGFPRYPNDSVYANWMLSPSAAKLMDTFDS

IC50 | Structure (SMILES)
10 to 100 nM | CCOc1cc(=O)[nH]cc1-c1ccc(CC(=O)Nc2cc(C(=O)NCCN(C)C)cc(C(F)(F)F)c2)c(F)c1 [Example 1, N-(2-(dimethylamino)ethyl)-3-(2-(4-(4-ethoxy-6-oxo-1,6-dihydropyridin-3-yl)-2-fluorophenyl)acetamido)-5-(trifluoromethyl)benzamide]
10 to 100 nM | CCOc1cc(=O)[nH]cc1-c1ccc(CC(=O)Nc2cc(OCCN(C)C)cc(C(F)(F)F)c2)c(F)c1 [Example 2, N-(3-(2-(dimethylamino)ethoxy)-5-(trifluoromethyl)phenyl)-2-(4-(4-ethoxy-6-oxo-1,6-dihydropyridin-3-yl)-2-fluorophenyl)acetamide]
